What was measured:
Type in all cases: cell-based
ACHN = experiment: NCI 60 cell line panel (SRB), ACHN; conditions: Homo sapiens, Renal Cancer, single dose of 10 μM, read-out: Cell Growth Percent
HT29 = experiment: NCI 60 cell line panel (SRB), HT29; conditions: Homo sapiens, HT-29; HT29, Colon Cancer; single dose of 10 μM; read-out: Cell Growth Percent
SW-620 = experiment: NCI 60 cell line panel (SRB), SW-620; conditions: Homo sapiens; SW-620, Colon Cancer; single dose of 10 μM; read-out: Cell Growth Percent
SN12C = experiment: NCI 60 cell line panel (SRB), SN12C; conditions: Homo sapiens, Renal Cancer, single dose of 10 μM, read-out: Cell Growth Percent
UO-31 = experiment: NCI 60 cell line panel (SRB), UO-31; conditions: Homo sapiens; UO-31, Renal Cancer; single dose of 10 μM; read-out: Cell Growth Percent
M14 = experiment: NCI 60 cell line panel (SRB), M14; conditions: Homo sapiens; M14, Melanoma; single dose of 10 μM; read-out: Cell Growth Percent
UACC-257 = experiment: NCI 60 cell line panel (SRB), UACC-257; conditions: Homo sapiens; UACC-257, Melanoma; single dose of 10 μM; read-out: Cell Growth Percent
PC-3 = experiment: NCI 60 cell line panel (SRB), PC-3; conditions: Homo sapiens; PC-3, Prostate Cancer; single dose of 10 μM; read-out: Cell Growth Percent
SK-MEL-28 = experiment: NCI 60 cell line panel (SRB), SK-MEL-28; conditions: Homo sapiens; SK-MEL-28, Melanoma; single dose of 10 μM; read-out: Cell Growth Percent
LOX IMVI = experiment: NCI 60 cell line panel (SRB), LOX IMVI; conditions: Homo sapiens, Melanoma, single dose of 10 μM, read-out: Cell Growth Percent
MDA-MB-435 = experiment: NCI 60 cell line panel (SRB), MDA-MB-435; conditions: Homo sapiens; MDA-MB-435, Melanoma; single dose of 10 μM; read-out: Cell Growth Percent
NCI-H460 = experiment: NCI 60 cell line panel (SRB), NCI-H460; conditions: Homo sapiens; NCI-H460, Non-Small Cell Lung Cancer; single dose of 10 μM; read-out: Cell Growth Percent
MDA-MB-231/ATCC = experiment: NCI 60 cell line panel (SRB), MDA-MB-231/ATCC; conditions: Homo sapiens, Breast Cancer, single dose of 10 μM, read-out: Cell Growth Percent
RPMI-8226 = experiment: NCI 60 cell line panel (SRB), RPMI-8226; conditions: Homo sapiens; RPMI-8226, Leukemia; single dose of 10 μM; read-out: Cell Growth Percent
HS 578T = experiment: NCI 60 cell line panel (SRB), HS 578T; conditions: Homo sapiens, Breast Cancer, single dose of 10 μM, read-out: Cell Growth Percent
OVCAR-8 = experiment: NCI 60 cell line panel (SRB), OVCAR-8; conditions: Homo sapiens; OVCAR-8, Ovarian Cancer; single dose of 10 μM; read-out: Cell Growth Percent
SF-295 = experiment: NCI 60 cell line panel (SRB), SF-295; conditions: Homo sapiens; SF-295, CNS Cancer; single dose of 10 μM; read-out: Cell Growth Percent
SNB-19 = experiment: NCI 60 cell line panel (SRB), SNB-19; conditions: Homo sapiens; SNB-19, CNS Cancer; single dose of 10 μM; read-out: Cell Growth Percent
EKVX = experiment: NCI 60 cell line panel (SRB), EKVX; conditions: Homo sapiens, Non-Small Cell Lung Cancer, single dose of 10 μM, read-out: Cell Growth Percent
HCT-15 = experiment: NCI 60 cell line panel (SRB), HCT-15; conditions: Homo sapiens; HCT-15, Colon Cancer; single dose of 10 μM; read-out: Cell Growth Percent
OVCAR-4 = experiment: NCI 60 cell line panel (SRB), OVCAR-4; conditions: Homo sapiens; OVCAR-4, Ovarian Cancer; single dose of 10 μM; read-out: Cell Growth Percent
A549/ATCC = experiment: NCI 60 cell line panel (SRB), A549/ATCC; conditions: Homo sapiens, Non-Small Cell Lung Cancer, single dose of 10 μM, read-out: Cell Growth Percent
OVCAR-5 = experiment: NCI 60 cell line panel (SRB), OVCAR-5; conditions: Homo sapiens; OVCAR-5, Ovarian Cancer; single dose of 10 μM; read-out: Cell Growth Percent
DU-145 = experiment: NCI 60 cell line panel (SRB), DU-145; conditions: Homo sapiens; DU-145, Prostate Cancer; single dose of 10 μM; read-out: Cell Growth Percent
SK-MEL-5 = experiment: NCI 60 cell line panel (SRB), SK-MEL-5; conditions: Homo sapiens; SK-MEL-5, Melanoma; single dose of 10 μM; read-out: Cell Growth Percent
NCI-H226 = experiment: NCI 60 cell line panel (SRB), NCI-H226; conditions: Homo sapiens; NCI-H226, Non-Small Cell Lung Cancer; single dose of 10 μM; read-out: Cell Growth Percent
CAKI-1 = experiment: NCI 60 cell line panel (SRB), CAKI-1; conditions: Homo sapiens; CAKI-1, Renal Cancer; single dose of 10 μM; read-out: Cell Growth Percent
SNB-75 = experiment: NCI 60 cell line panel (SRB), SNB-75; conditions: Homo sapiens; SNB-75, CNS Cancer; single dose of 10 μM; read-out: Cell Growth Percent
T-47D = experiment: NCI 60 cell line panel (SRB), T-47D; conditions: Homo sapiens, T47D, Breast Cancer, single dose of 10 μM, read-out: Cell Growth Percent
HCC-2998 = experiment: NCI 60 cell line panel (SRB), HCC-2998; conditions: Homo sapiens; HCC-2998, Colon Cancer; single dose of 10 μM; read-out: Cell Growth Percent
MCF7 = experiment: NCI 60 cell line panel (SRB), MCF7; conditions: Homo sapiens; MCF7, Breast Cancer; single dose of 10 μM; read-out: Cell Growth Percent
SK-MEL-2 = experiment: NCI 60 cell line panel (SRB), SK-MEL-2; conditions: Homo sapiens; SK-MEL-2, Melanoma; single dose of 10 μM; read-out: Cell Growth Percent
SR = experiment: NCI 60 cell line panel (SRB), SR; conditions: Homo sapiens, Leukemia, single dose of 10 μM, read-out: Cell Growth Percent
NCI-H522 = experiment: NCI 60 cell line panel (SRB), NCI-H522; conditions: Homo sapiens; NCI-H522, Non-Small Cell Lung Cancer; single dose of 10 μM; read-out: Cell Growth Percent
HL-60(TB) = experiment: NCI 60 cell line panel (SRB), HL-60(TB); conditions: Homo sapiens, Leukemia, single dose of 10 μM, read-out: Cell Growth Percent

## CCOC(=O)c1c(C)oc2ncnc(Nc3ccc(NC(=O)Nc4cccc(Cl)c4)cc3)c12 [Compound 15d]
ACHN
  activity at 10 µM: 57.4%
HT29
  activity at 10 µM: 37.1%
SW-620
  activity at 10 µM: 88.6%
SN12C
  activity at 10 µM: 73.9%
UO-31
  activity at 10 µM: 50.3%
M14
  activity at 10 µM: 48.6%
UACC-257
  activity at 10 µM: 83.9%
PC-3
  activity at 10 µM: 41.2%
SK-MEL-28
  activity at 10 µM: 61.8%
LOX IMVI
  activity at 10 µM: 64.1%
MDA-MB-435
  activity at 10 µM: 65.8%
NCI-H460
  activity at 10 µM: 67.1%
MDA-MB-231/ATCC
  activity at 10 µM: 18.6%
RPMI-8226
  activity at 10 µM: 46.1%
HS 578T
  activity at 10 µM: 80.6%
OVCAR-8
  activity at 10 µM: 50.2%
SF-295
  activity at 10 µM: 79.5%
SNB-19
  activity at 10 µM: 84.6%
EKVX
  activity at 10 µM: 72.3%
HCT-15
  activity at 10 µM: 58.9%
OVCAR-4
  activity at 10 µM: 73.7%
A549/ATCC
  activity at 10 µM: 32.3%
OVCAR-5
  activity at 10 µM: 122%
DU-145
  activity at 10 µM: 70.8%
SK-MEL-5
  activity at 10 µM: 52.9%
NCI-H226
  activity at 10 µM: 54.8%
CAKI-1
  activity at 10 µM: 90.8%
SNB-75
  activity at 10 µM: 70.6%
T-47D
  activity at 10 µM: 1.9%
HCC-2998
  activity at 10 µM: 105%
MCF7
  activity at 10 µM: 43.3%
SK-MEL-2
  activity at 10 µM: 72.7%
SR
  activity at 10 µM: 53.6%
NCI-H522
  activity at 10 µM: 57.1%
HL-60(TB)
  activity at 10 µM: 88.4%

## CCOC(=O)c1c(C)oc2ncnc(Nc3ccc(NC(=O)Nc4ccc(CC)cc4)cc3)c12 [Compound 15i]
ACHN
  activity at 10 µM: 98.8%
HT29
  activity at 10 µM: 103%
SW-620
  activity at 10 µM: 113%
SN12C
  activity at 10 µM: 107%
UO-31
  activity at 10 µM: 94.7%
M14
  activity at 10 µM: 99.9%
UACC-257
  activity at 10 µM: 111%
PC-3
  activity at 10 µM: 90.7%
SK-MEL-28
  activity at 10 µM: 105%
LOX IMVI
  activity at 10 µM: 100%
MDA-MB-435
  activity at 10 µM: 102%
NCI-H460
  activity at 10 µM: 106%
MDA-MB-231/ATCC
  activity at 10 µM: 94.6%
RPMI-8226
  activity at 10 µM: 95%
HS 578T
  activity at 10 µM: 97.7%
OVCAR-8
  activity at 10 µM: 112%
SF-295
  activity at 10 µM: 109%
SNB-19
  activity at 10 µM: 97.9%
EKVX
  activity at 10 µM: 102%
HCT-15
  activity at 10 µM: 105%
OVCAR-4
  activity at 10 µM: 105%
A549/ATCC
  activity at 10 µM: 89.2%
OVCAR-5
  activity at 10 µM: 107%
DU-145
  activity at 10 µM: 103%
SK-MEL-5
  activity at 10 µM: 93.7%
NCI-H226
  activity at 10 µM: 104%
CAKI-1
  activity at 10 µM: 98.3%
SNB-75
  activity at 10 µM: 80.5%
T-47D
  activity at 10 µM: 78.2%
HCC-2998
  activity at 10 µM: 114%
MCF7
  activity at 10 µM: 94.9%
SK-MEL-2
  activity at 10 µM: 120%
SR
  activity at 10 µM: 81.6%
NCI-H522
  activity at 10 µM: 83.7%
HL-60(TB)
  activity at 10 µM: 103%

## COc1cccc(NC(=O)Nc2ccc(Nc3ncnc4sc5c(c34)CCCC5)cc2)c1 [Compound 20c]
ACHN
  activity at 10 µM: 92%
HT29
  activity at 10 µM: 104%
SW-620
  activity at 10 µM: 112%
SN12C
  activity at 10 µM: 91%
UO-31
  activity at 10 µM: 61%
M14
  activity at 10 µM: 89.8%
UACC-257
  activity at 10 µM: 94.9%
PC-3
  activity at 10 µM: 89.6%
SK-MEL-28
  activity at 10 µM: 93.3%
LOX IMVI
  activity at 10 µM: 94.4%
MDA-MB-435
  activity at 10 µM: 98.5%
NCI-H460
  activity at 10 µM: 106%
MDA-MB-231/ATCC
  activity at 10 µM: 89%
RPMI-8226
  activity at 10 µM: 102%
HS 578T
  activity at 10 µM: 74.4%
OVCAR-8
  activity at 10 µM: 113%
SF-295
  activity at 10 µM: 99%
SNB-19
  activity at 10 µM: 95.2%
EKVX
  activity at 10 µM: 89.6%
HCT-15
  activity at 10 µM: 97.8%
OVCAR-4
  activity at 10 µM: 88.8%
A549/ATCC
  activity at 10 µM: 78.3%
OVCAR-5
  activity at 10 µM: 106%
DU-145
  activity at 10 µM: 105%
SK-MEL-5
  activity at 10 µM: 92.3%
NCI-H226
  activity at 10 µM: 90.1%
CAKI-1
  activity at 10 µM: 97%
SNB-75
  activity at 10 µM: 62.7%
T-47D
  activity at 10 µM: 66.4%
HCC-2998
  activity at 10 µM: 118%
MCF7
  activity at 10 µM: 86.2%
SK-MEL-2
  activity at 10 µM: 116%
SR
  activity at 10 µM: 84.6%
NCI-H522
  activity at 10 µM: 81.2%
HL-60(TB)
  activity at 10 µM: 91.1%

From article PMC4832243, “Discovery of Potent VEGFR-2 Inhibitors based on Furopyrimidine and Thienopyrimidne Scaffolds as Cancer Targeting Agents” (Scientific Reports, 2016)
